What follows are compounds tested on test plant species (assay: Post-emergent herbicidal activity test (greenhouse, foliar spray, visual growth reduction)). Conditions: post-emergence, 336 h, ECHCG: barnyardgrass (Echinochloa crus-galli), 140 g ai/ha, 14 days after application, read-out: Visual Growth Reduction (%) 14 Days After Application, ECHCG.
Format: in vivo
Summary of the method: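 Seedlings were raised 7-21 d in a greenhouse under a 15 h photoperiod until the first or second true leaf. Each compound, dissolved in acetone:DMSO 97:3 and diluted into a surfactant-containing spray mixture, was then applied at 187 L/ha. Plants were subirrigated, and growth reduction was scored visually at 14 d.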
For `COC(=O)c1nc(-c2cc(F)c(C(F)(F)F)cc2F)c(Cl)cc1Cl` [F325, Methyl 3,5-dichloro-6-(2,5-difluoro-4-(trifluoromethyl)phenyl)picolinate], the pest or weed control at 140 g/ha was 0 to 29%. In the case of `COC(=O)c1nc(-c2cc(F)c(C(F)(F)F)cc2OC)ccc1Cl` [F362, Methyl 3-chloro-6-(5-fluoro-2-methoxy-4-(trifluoromethyl)phenyl)picolinate], the pest or weed control at 140 g/ha is reported as 0 to 29%.

Same assay, conditions: post-emergence, 336 h, IPOHE: ivy-leaf morning glory (Ipomoea hederacea), 140 g ai/ha, 14 days after application, read-out: Visual Growth Reduction (%) 14 Days After Application, IPOHE
Compound `COC(=O)c1nc(-c2cc(F)c(C(F)(F)F)cc2F)c(Cl)cc1Cl` [F325, Methyl 3,5-dichloro-6-(2,5-difluoro-4-(trifluoromethyl)phenyl)picolinate] has a pest or weed control at 140 g/ha of 95 to 100%. Work on `COC(=O)c1nc(-c2cc(F)c(C(F)(F)F)cc2OC)ccc1Cl` [F362, Methyl 3-chloro-6-(5-fluoro-2-methoxy-4-(trifluoromethyl)phenyl)picolinate] yielded a pest or weed control at 140 g/ha of 95 to 100%.

Same assay, conditions: post-emergence, 336 h, KCHSC: kochia (Bassia scoparia), 140 g ai/ha, 14 days after application, read-out: Visual Growth Reduction (%) 14 Days After Application, KCHSC
Compound `COC(=O)c1nc(-c2cc(F)c(C(F)(F)F)cc2F)c(Cl)cc1Cl` [F325, Methyl 3,5-dichloro-6-(2,5-difluoro-4-(trifluoromethyl)phenyl)picolinate] has a pest or weed control at 140 g/ha of 0 to 29%. `COC(=O)c1nc(-c2cc(F)c(C(F)(F)F)cc2OC)ccc1Cl` [F362, Methyl 3-chloro-6-(5-fluoro-2-methoxy-4-(trifluoromethyl)phenyl)picolinate] was tested, and the pest or weed control at 140 g/ha was 30 to 44%.

Same assay, conditions: post-emergence, 336 h, ORYSA: rice (Oryza sativa), 140 g ai/ha, 14 days after application, read-out: Visual Growth Reduction (%) 14 Days After Application, ORYSA
`COC(=O)c1nc(-c2cc(F)c(C(F)(F)F)cc2F)c(Cl)cc1Cl` [F325, Methyl 3,5-dichloro-6-(2,5-difluoro-4-(trifluoromethyl)phenyl)picolinate] gave a pest or weed control at 140 g/ha of 0 to 29%. `COC(=O)c1nc(-c2cc(F)c(C(F)(F)F)cc2OC)ccc1Cl` [F362, Methyl 3-chloro-6-(5-fluoro-2-methoxy-4-(trifluoromethyl)phenyl)picolinate] was tested, and the pest or weed control at 140 g/ha was 0 to 29%.

Same assay, conditions: post-emergence, 336 h, SETFA: giant foxtail (Setaria faberi), 140 g ai/ha, 14 days after application, read-out: Visual Growth Reduction (%) 14 Days After Application, SETFA
In the case of `COC(=O)c1nc(-c2cc(F)c(C(F)(F)F)cc2F)c(Cl)cc1Cl` [F325, Methyl 3,5-dichloro-6-(2,5-difluoro-4-(trifluoromethyl)phenyl)picolinate], the pest or weed control at 140 g/ha is reported as 30 to 44%. `COC(=O)c1nc(-c2cc(F)c(C(F)(F)F)cc2OC)ccc1Cl` [F362, Methyl 3-chloro-6-(5-fluoro-2-methoxy-4-(trifluoromethyl)phenyl)picolinate] showed a pest or weed control at 140 g/ha of 60 to 74%.

Same assay, conditions: post-emergence, 336 h, SORVU: grain sorghum (Sorghum vulgare), 140 g ai/ha, 14 days after application, read-out: Visual Growth Reduction (%) 14 Days After Application, SORVU
Compound `COC(=O)c1nc(-c2cc(F)c(C(F)(F)F)cc2F)c(Cl)cc1Cl` [F325, Methyl 3,5-dichloro-6-(2,5-difluoro-4-(trifluoromethyl)phenyl)picolinate] has a pest or weed control at 140 g/ha of 85 to 94%. Compound `COC(=O)c1nc(-c2cc(F)c(C(F)(F)F)cc2OC)ccc1Cl` [F362, Methyl 3-chloro-6-(5-fluoro-2-methoxy-4-(trifluoromethyl)phenyl)picolinate] has a pest or weed control at 140 g/ha of 85 to 94%.

Same assay, conditions: post-emergence, 336 h, STEME: common chickweed (Stellaria media), 140 g ai/ha, 14 days after application, read-out: Visual Growth Reduction (%) 14 Days After Application, STEME
Work on `COC(=O)c1nc(-c2cc(F)c(C(F)(F)F)cc2F)c(Cl)cc1Cl` [F325, Methyl 3,5-dichloro-6-(2,5-difluoro-4-(trifluoromethyl)phenyl)picolinate] yielded a pest or weed control at 140 g/ha of 0 to 29%. `COC(=O)c1nc(-c2cc(F)c(C(F)(F)F)cc2OC)ccc1Cl` [F362, Methyl 3-chloro-6-(5-fluoro-2-methoxy-4-(trifluoromethyl)phenyl)picolinate] showed a pest or weed control at 140 g/ha of 0 to 29%.

Same assay, conditions: post-emergence, 336 h, TRZAS: wheat, spring (Triticum aestivum), 140 g ai/ha, 14 days after application, read-out: Visual Growth Reduction (%) 14 Days After Application, TRZAS
`COC(=O)c1nc(-c2cc(F)c(C(F)(F)F)cc2F)c(Cl)cc1Cl` [F325, Methyl 3,5-dichloro-6-(2,5-difluoro-4-(trifluoromethyl)phenyl)picolinate] was tested, and the pest or weed control at 140 g/ha was 0 to 29%. `COC(=O)c1nc(-c2cc(F)c(C(F)(F)F)cc2OC)ccc1Cl` [F362, Methyl 3-chloro-6-(5-fluoro-2-methoxy-4-(trifluoromethyl)phenyl)picolinate] gave a pest or weed control at 140 g/ha of 0 to 29%.

Same assay, conditions: post-emergence, 336 h, blackgrass (Alopecurus myosuroides), 14 Days After Application, 140 g ai/ha, read-out: Visual Growth Reduction (%) ALOMY
For `COC(=O)c1nc(-c2cc(F)c(C(F)(F)F)cc2F)c(Cl)cc1Cl` [F325, Methyl 3,5-dichloro-6-(2,5-difluoro-4-(trifluoromethyl)phenyl)picolinate], the pest or weed control at 140 g/ha was 0 to 29%. For `COC(=O)c1nc(-c2cc(F)c(C(F)(F)F)cc2OC)ccc1Cl` [F362, Methyl 3-chloro-6-(5-fluoro-2-methoxy-4-(trifluoromethyl)phenyl)picolinate], the pest or weed control at 140 g/ha was 0 to 29%.

Same assay, conditions: post-emergence, 336 h, canada thistle (Cirsium arvense), 14 Days After Application, 140 g ai/ha, read-out: Visual Growth Reduction (%) CIRAR
Compound `COC(=O)c1nc(-c2cc(F)c(C(F)(F)F)cc2F)c(Cl)cc1Cl` [F325, Methyl 3,5-dichloro-6-(2,5-difluoro-4-(trifluoromethyl)phenyl)picolinate] has a pest or weed control at 140 g/ha of 85 to 94%. In the case of `COC(=O)c1nc(-c2cc(F)c(C(F)(F)F)cc2OC)ccc1Cl` [F362, Methyl 3-chloro-6-(5-fluoro-2-methoxy-4-(trifluoromethyl)phenyl)picolinate], the pest or weed control at 140 g/ha is reported as 0 to 29%.

Same assay, conditions: post-emergence, 336 h, crabgrass (Digitaria sanguinalis), 14 Days After Application, 140 g ai/ha, read-out: Visual Growth Reduction (%) DIGSA
`COC(=O)c1nc(-c2cc(F)c(C(F)(F)F)cc2F)c(Cl)cc1Cl` [F325, Methyl 3,5-dichloro-6-(2,5-difluoro-4-(trifluoromethyl)phenyl)picolinate] was tested, and the pest or weed control at 140 g/ha was 75 to 84%. With `COC(=O)c1nc(-c2cc(F)c(C(F)(F)F)cc2OC)ccc1Cl` [F362, Methyl 3-chloro-6-(5-fluoro-2-methoxy-4-(trifluoromethyl)phenyl)picolinate] the pest or weed control at 140 g/ha was 45 to 59%.

Same assay, conditions: post-emergence, 336 h, lambsquarters (Chenopodium album), 14 Days After Application, 140 g ai/ha, read-out: Visual Growth Reduction (%) CHEAL
Compound `COC(=O)c1nc(-c2cc(F)c(C(F)(F)F)cc2F)c(Cl)cc1Cl` [F325, Methyl 3,5-dichloro-6-(2,5-difluoro-4-(trifluoromethyl)phenyl)picolinate] has a pest or weed control at 140 g/ha of 95 to 100%. For `COC(=O)c1nc(-c2cc(F)c(C(F)(F)F)cc2OC)ccc1Cl` [F362, Methyl 3-chloro-6-(5-fluoro-2-methoxy-4-(trifluoromethyl)phenyl)picolinate], the pest or weed control at 140 g/ha was 85 to 94%.

Same assay, conditions: post-emergence, 336 h, redroot pigweed (Amaranthus retroflexus), 14 Days After Application, 140 g ai/ha, read-out: Visual Growth Reduction (%) AMARE
`COC(=O)c1nc(-c2cc(F)c(C(F)(F)F)cc2F)c(Cl)cc1Cl` [F325, Methyl 3,5-dichloro-6-(2,5-difluoro-4-(trifluoromethyl)phenyl)picolinate] showed a pest or weed control at 140 g/ha of 60 to 74%. Compound `COC(=O)c1nc(-c2cc(F)c(C(F)(F)F)cc2OC)ccc1Cl` [F362, Methyl 3-chloro-6-(5-fluoro-2-methoxy-4-(trifluoromethyl)phenyl)picolinate] has a pest or weed control at 140 g/ha of 95 to 100%.

Same assay, conditions: post-emergence, 336 h, wild oat (Avena fatua), 14 Days After Application, 140 g ai/ha, read-out: Visual Growth Reduction (%) AVEFA
For `COC(=O)c1nc(-c2cc(F)c(C(F)(F)F)cc2F)c(Cl)cc1Cl` [F325, Methyl 3,5-dichloro-6-(2,5-difluoro-4-(trifluoromethyl)phenyl)picolinate], the pest or weed control at 140 g/ha was 0 to 29%. `COC(=O)c1nc(-c2cc(F)c(C(F)(F)F)cc2OC)ccc1Cl` [F362, Methyl 3-chloro-6-(5-fluoro-2-methoxy-4-(trifluoromethyl)phenyl)picolinate] was tested, and the pest or weed control at 140 g/ha was 0 to 29%.

Same assay, conditions: post-emergence, 336 h, yellow nutsedge (Cyperus esculentus), 14 Days After Application, 140 g ai/ha, read-out: Visual Growth Reduction (%) CYPES
`COC(=O)c1nc(-c2cc(F)c(C(F)(F)F)cc2F)c(Cl)cc1Cl` [F325, Methyl 3,5-dichloro-6-(2,5-difluoro-4-(trifluoromethyl)phenyl)picolinate] showed a pest or weed control at 140 g/ha of 0 to 29%. In the case of `COC(=O)c1nc(-c2cc(F)c(C(F)(F)F)cc2OC)ccc1Cl` [F362, Methyl 3-chloro-6-(5-fluoro-2-methoxy-4-(trifluoromethyl)phenyl)picolinate], the pest or weed control at 140 g/ha is reported as 0 to 29%.
